Reference: PubChem BioAssay AID330 (DTP/NCI, 2004)
“And” between values parts separate entries of the source, which are not always exact repeats. Identical values can stand only once. Inconclusive results and toxic doses are left out. Rule for the calls: active = survival T/C of 150% or more; inactive = T/C below 125% in these data.

System: P388 leukemia ip, CD2F1 mice, survival T/C
Assay: NCI In Vivo Anticancer Drug Screen. Data for tumor model P388 Leukemia (intraperitoneal) in CD2F1 (CDF1) mice
Conditions: endpoint: median survival time, higher = longer survival
Outline: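 Mice carrying the transplanted tumor received test compound or vehicle. Survival was recorded in each group, and the value is the treated-group measurement divided by that of the vehicle-treated control group.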

[1] = dose: 6.25 mg/kg/injection, schedule: Q01DX009 (ip), vehicle: water
[2] = dose: 12.5 mg/kg/injection, schedule: Q01DX009 (ip), vehicle: water
[3] = dose: 25.0 mg/kg/injection, schedule: Q01DX009 (ip), vehicle: water
[4] = dose: 50.0 mg/kg/injection, schedule: Q01DX005 (ip), vehicle: saline with Tween-80
[5] = dose: 100.0 mg/kg/injection, schedule: Q01DX005 (ip), vehicle: saline with Tween-80
[6] = dose: 200.0 mg/kg/injection, schedule: Q01DX005 (ip), vehicle: saline with Tween-80
[7] = dose: 50.0 mg/kg/injection, schedule: Q01DX009 (ip), vehicle: saline with Tween-80
[8] = dose: 100.0 mg/kg/injection, schedule: Q01DX009 (ip), vehicle: saline with Tween-80
[9] = dose: 200.0 mg/kg/injection, schedule: Q01DX009 (ip), vehicle: saline with Tween-80
[10] = dose: 400.0 mg/kg/injection, schedule: Q01DX009 (ip), vehicle: saline with Tween-80
[11] = dose: 50.0 mg/kg/injection, schedule: Q01DX009 (ip), vehicle: water
[12] = dose: 12.5 mg/kg/injection, schedule: Q01DX009 (ip), vehicle: saline with Tween-80
[13] = dose: 50.0 mg/kg/injection, schedule: Q01DX005 (ip), vehicle: Klucel (hydroxypropylcellulose) (HPC)
[14] = dose: 100.0 mg/kg/injection, schedule: Q01DX005 (ip), vehicle: Klucel (hydroxypropylcellulose) (HPC)
[15] = dose: 100.0 mg/kg/injection, schedule: Q04DX002 (ip), vehicle: Klucel (hydroxypropylcellulose) (HPC)
[16] = dose: 200.0 mg/kg/injection, schedule: Q01DX005 (ip), vehicle: Klucel (hydroxypropylcellulose) (HPC)
[17] = dose: 200.0 mg/kg/injection, schedule: Q04DX002 (ip), vehicle: Klucel (hydroxypropylcellulose) (HPC)
[18] = dose: 60.0 mg/kg/injection, schedule: Q01DX005 (ip), vehicle: saline with Tween-80
[19] = dose: 120.0 mg/kg/injection, schedule: Q01DX005 (ip), vehicle: saline with Tween-80
[20] = dose: 240.0 mg/kg/injection, schedule: Q01DX005 (ip), vehicle: saline with Tween-80

Measured: T/C

O/N=C/c1cccc[n+]1Cc1ccccc1
inactive: dose: 1.56 mg/kg/injection, schedule: Q01DX009 (ip), vehicle: water 102 % of control | dose: 3.13 mg/kg/injection, schedule: Q01DX009 (ip), vehicle: water 101 % of control | [1] 102 % of control | [2] 102 % of control | [3] 107 % of control

CN1C(=O)C2CC(=O)N(Cc3ccccc3)C(=O)C2C1=O (centres undefined)
inactive: [4] 96 % of control | [5] 87 % of control | [6] 87 % of control

COc1ccc2nc3cc(Cl)ccc3c(SCC(=O)OCC(=O)[C@@]3(O)CC[C@H]4[C@@H]5CCC6=CC(=O)C=C[C@]6(C)[C@H]5C(=O)C[C@@]43C)c2c1
inactive: dose: 50.0 mg/kg/injection, schedule: Q01DX009 (ip), vehicle: saline 118 % of control | dose: 100.0 mg/kg/injection, schedule: Q01DX009 (ip), vehicle: saline 108 % of control | dose: 200.0 mg/kg/injection, schedule: Q01DX009 (ip), vehicle: saline 110 % of control

CCOC(=O)c1nc2cc(C)c(C)cc2[nH]c1=O
inactive: dose: 100.0 mg/kg/injection, schedule: Q04DX003 (ip), vehicle: saline with Tween-80 95 % of control | dose: 200.0 mg/kg/injection, schedule: Q04DX003 (ip), vehicle: saline with Tween-80 100 % of control | dose: 400.0 mg/kg/injection, schedule: Q04DX003 (ip), vehicle: saline with Tween-80 104 % of control

CCOC(=O)CC(CC(=O)OCC)(C(=O)OCC)C(=O)OCC
inactive: [7] 92 % of control | [8] 100 % of control | [9] 96 % of control | [10] 100 % of control

COC(=O)/C=C/COc1ccccc1C(=O)NCc1ccc([N+](=O)[O-])cc1
inactive: dose: 100.0 mg/kg/injection, schedule: Q04DX003 (ip), vehicle: Klucel (hydroxypropylcellulose) (HPC) 109 % of control | dose: 200.0 mg/kg/injection, schedule: Q04DX003 (ip), vehicle: Klucel (hydroxypropylcellulose) (HPC) 108 % of control | dose: 400.0 mg/kg/injection, schedule: Q04DX003 (ip), vehicle: Klucel (hydroxypropylcellulose) (HPC) 109 % of control

NNC(=O)Cc1cc(=O)[nH][nH]1
inactive: dose: 100.0 mg/kg/injection, schedule: Q01DX009 (ip), vehicle: Klucel (hydroxypropylcellulose) (HPC) 101 % of control | dose: 200.0 mg/kg/injection, schedule: Q01DX009 (ip), vehicle: Klucel (hydroxypropylcellulose) (HPC) 100 % of control | dose: 400.0 mg/kg/injection, schedule: Q01DX009 (ip), vehicle: Klucel (hydroxypropylcellulose) (HPC) 108 % of control

OC1CC2CCCCC2CC1c1ccccc1 (centres undefined)
inactive: dose: 50.0 mg/kg/injection, schedule: Q04DX002 (ip), vehicle: saline with Tween-80 100 % of control and 92 % of control | dose: 100.0 mg/kg/injection, schedule: Q04DX002 (ip), vehicle: saline with Tween-80 111 % of control and 92 % of control | dose: 200.0 mg/kg/injection, schedule: Q04DX002 (ip), vehicle: saline with Tween-80 92 % of control and 97 % of control | dose: 400.0 mg/kg/injection, schedule: Q04DX002 (ip), vehicle: saline with Tween-80 116 % of control

NCCC(=O)OC1CCCc2c(O)c3c(c(O)c21)C(=O)c1ccccc1C3=O (centres undefined)
inactive: dose: 3.12 mg/kg/injection, schedule: Q01DX009 (ip), vehicle: water 103 % of control | [1] 94 % of control | [2] 100 % of control | [3] 93 % of control | [11] 93 % of control

Cc1cccc(N(CCOS(C)(=O)=O)CCOS(C)(=O)=O)c1
inactive: dose: 1.56 mg/kg/injection, schedule: Q01DX009 (ip), vehicle: saline 95 % of control | dose: 3.12 mg/kg/injection, schedule: Q01DX009 (ip), vehicle: saline 98 % of control | dose: 6.25 mg/kg/injection, schedule: Q01DX009 (ip), vehicle: saline 100 % of control | [12] 87 % of control | dose: 25.0 mg/kg/injection, schedule: Q01DX009 (ip), vehicle: saline 102 % of control

CC(=O)OCC1OC(OC2C(COC(C)=O)OC(Sc3ccccc3)C(OC(C)=O)C2OC(C)=O)C(OC(C)=O)C(OC(C)=O)C1OC(C)=O (centres undefined)
inactive: [13] 100 % of control | [14] 100 % of control | [15] 94 % of control | [16] 109 % of control | [17] 91 % of control

Cc1c2c(cc3c1[nH]c1ccccc13)C(=O)c1ccccc1C2=O
inactive: dose: 12.5 mg/kg/injection, schedule: Q01DX005 (ip), vehicle: saline with Tween-80 94 % of control | dose: 25.0 mg/kg/injection, schedule: Q01DX005 (ip), vehicle: saline with Tween-80 95 % of control | [4] 92 % of control and 94 % of control | [6] 87 % of control

CC1CN(Cc2ccccc2)CCC1N1CCCC1 (centres undefined)
inactive: [4] 111 % of control | [5] 107 % of control | [6] 109 % of control

CCOC(=O)CN1CN(CCc2ccccc2)CC(C)(C)C1OCC (centres undefined)
inactive: [7] 104 % of control | [8] 101 % of control | [9] 121 % of control | [10] 112 % of control

C=Cc1ccc(Oc2ccccc2)cc1
inactive: dose: 25.0 mg/kg/injection, schedule: Q04DX003 (ip), vehicle: saline 100 % of control | dose: 50.0 mg/kg/injection, schedule: Q04DX003 (ip), vehicle: saline 95 % of control | dose: 100.0 mg/kg/injection, schedule: Q04DX003 (ip), vehicle: saline 109 % of control

Cc1cc(NC(=O)NCCOc2ccc(N3C(N)=NC(N)=NC3(C)C)cc2Cl)ccc1S(=O)(=O)F
inactive: dose: 12.5 mg/kg/injection, schedule: Q04DX003 (ip), vehicle: saline sonified 100 % of control | dose: 25.0 mg/kg/injection, schedule: Q04DX003 (ip), vehicle: saline sonified 100 % of control | dose: 50.0 mg/kg/injection, schedule: Q04DX003 (ip), vehicle: saline sonified 100 % of control

C[n+]1cccc2c1C(=O)C(=O)c1ncccc1-2
inactive: [12] 100 % of control | dose: 25.0 mg/kg/injection, schedule: Q01DX009 (ip), vehicle: saline with Tween-80 108 % of control | [7] 109 % of control

CCOC(=O)C(N)CSC (centres undefined)
inactive: [11] 97 % of control | dose: 200.0 mg/kg/injection, schedule: Q01DX009 (ip), vehicle: water 103 % of control | dose: 400.0 mg/kg/injection, schedule: Q01DX009 (ip), vehicle: water 106 % of control

CN1C2CCC1CC(O)(c1ccc(Cl)cc1)C2 (centres undefined)
inactive: dose: 12.5 mg/kg/injection, schedule: Q01DX005 (ip), vehicle: Klucel (hydroxypropylcellulose) (HPC) 100 % of control | dose: 25.0 mg/kg/injection, schedule: Q01DX005 (ip), vehicle: Klucel (hydroxypropylcellulose) (HPC) 100 % of control | [13] 107 % of control | [14] 109 % of control

O=c1[nH]c2ccccc2nc1C1(F)CCCC1
inactive: [18] 98 % of control | [19] 92 % of control | [20] 89 % of control

COc1cc(C2C(C#N)=C(C)Nc3nc(N)nc(N)c32)cc(OC)c1OC (centres undefined)
inactive: [18] 94 % of control | [19] 106 % of control | [20] 104 % of control

C=C1CC2(C=C(C)CCC2C(C)C)OC1=O (centres undefined)
inactive: dose: 100.0 mg/kg/injection, schedule: Q01DX001 (ip), vehicle: saline 101 % of control | dose: 200.0 mg/kg/injection, schedule: Q01DX001 (ip), vehicle: saline 101 % of control | dose: 400.0 mg/kg/injection, schedule: Q01DX001 (ip), vehicle: saline 101 % of control

C[CH2][Ge]([CH2]C)[CH2]C(=O)OC.C[CH2][Ge]([CH2]C)[CH2]C(=O)OC
inactive: [13] 100 % of control | [14] 100 % of control | [16] 101 % of control

COC1=CS(C)(=O)=CC(SC)=C1C#N (centres undefined)
inactive: dose: 50.0 mg/kg/injection, schedule: Q04DX002 (ip), vehicle: Klucel (hydroxypropylcellulose) (HPC) 99 % of control | [15] 99 % of control | [17] 98 % of control

Nc1n[nH]c(=S)n1-c1ccc(Cl)cc1
inactive: [8] 115 % of control | [9] 120 % of control | [10] 120 % of control

CCC(NN)C(=O)OCc1ccccc1 (centres undefined)
inactive: [13] 97 % of control | [14] 95 % of control | [16] 103 % of control

CCOC(=O)c1[nH]c2ccc(OC)c3c2c1CCC3=O
inactive: [7] 92 % of control | [8] 92 % of control | [9] 92 % of control
